The assay addresses T1, human PAH with the R408W mutation (Homo sapiens, UniProt P00439, R408W).
T1 construct: expressed in transfected cells
T1 sequence (P00439 1-452 R408W): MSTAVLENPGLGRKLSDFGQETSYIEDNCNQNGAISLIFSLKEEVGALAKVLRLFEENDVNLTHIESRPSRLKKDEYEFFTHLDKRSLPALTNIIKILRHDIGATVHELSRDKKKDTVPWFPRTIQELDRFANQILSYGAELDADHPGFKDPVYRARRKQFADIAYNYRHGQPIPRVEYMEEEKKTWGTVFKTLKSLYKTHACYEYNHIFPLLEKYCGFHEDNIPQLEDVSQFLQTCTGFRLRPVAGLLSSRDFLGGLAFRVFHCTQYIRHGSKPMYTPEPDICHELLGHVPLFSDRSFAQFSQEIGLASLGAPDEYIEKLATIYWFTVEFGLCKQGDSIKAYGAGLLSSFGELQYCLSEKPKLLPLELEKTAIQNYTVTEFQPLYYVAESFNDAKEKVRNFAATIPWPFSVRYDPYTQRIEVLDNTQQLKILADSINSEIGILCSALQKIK
Kind of assay: Cell Based Phenylalanine Flux Assay.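 Also: Ten-point dose curve from 2-fold serial dilutions, run in duplicate at 0.5% DMSO final, tracer step used 20 µM sepiapterin and 800 µM labeled phenylalanine.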 The settings on record: A375 cells expressing human R408W PAH; 24 hrs with compound, then sepiapterin and 13C9,15N-Phenylalanine for 4 hours; 13C-Tyrosine by LC-MS; average where tested multiple times; read-out: AC50.

Bounds are passed on as bounds.

Turning to `Cc1cccc(-c2nnc(C(=O)N3CCc4[nH]cnc4[C@H]3c3cc4c(Cl)cccn4n3)o2)n1` [Example 1431, (S)-(4-(4-chloropyrazolo [1,5-a]pyridin-2-yl)-6,7-dihydro-1H-imidazo[4,5-c]pyridin-5(4H)-yl)(5-(6-methylpyridin-2-yl)-1,3,4-oxadiazol-2-yl)methanone], the half-maximal activity concentration (AC50) is below 0.5 µM.
Take `Clc1cccn2nc([C@@H]3c4nc[nH]c4CCN3c3nnc(-c4cnccn4)o3)cc12` [Example 2161, (S)-2-(4-(4-chloropyrazolo [1,5-a]pyridin-2-yl)-1,4,6,7-tetrahydro-5H-imidazo[4,5-c]pyridin-5-yl)-5-(pyrazin-2-yl)-1,3,4-oxadiazole]: the half-maximal activity concentration (AC50) was below 0.5 µM.

The term AC50 denotes the concentration giving half of the maximal activity seen.
